Measurements: patent US20090156517A1, “STABLE PHARMACEUTICAL COMPOSITIONS OF AMINOGLYCOSIDE ANTIBIOTICS, ION-CHELATING AGENTS, AND BUFFERS” (priority 2006, published 2009)
One block for each compound: values may come before it.

Test: Amounts of antibiotic components in the solution over time (reverse-phase LC/UV for β-lactams and β-lactamase inhibitors, HPLC/evaporation-light-scattering for aminoglycosides)
Format: physicochemical
Procedure: The amounts of β-lactam antibiotics and β-lactamase inhibitor were determined using C18 reverse-phase LC and UV-VIS detector (Tianjin […] Co., Ltd., analysis method No. HM-K-03). The content of aminoglycoside antibiotics was measured using reverse-phase HPLC and evaporation-light-scattering detector (Tianjin […] Co., Ltd., analysis method No. HM-K-08). […] The relative amount of each antibiotic component in the composition at each time point was expressed as peak area ratio with respect to the corresponding peak area of an external standard.

[1] = Example 12: thawed solution from Example 10, pH 6.0, amikacin sulfate added, no EDTA, 0 h
[2] = Example 12: thawed solution from Example 10, pH 6.0, amikacin sulfate added, no EDTA, 1 h
[3] = Example 12: thawed solution from Example 10, pH 6.0, amikacin sulfate added, no EDTA, 2 h
[4] = Example 12: thawed solution from Example 10, pH 6.0, amikacin sulfate added, no EDTA, 4 h
[5] = Example 12: thawed solution from Example 10, pH 6.0, amikacin sulfate added, no EDTA, 6 h
[6] = Example 12: thawed solution from Example 10, pH 6.0, amikacin sulfate added, no EDTA, 8 h
[7] = Example 14: cefoperazone sodium/tazobactam sodium solution pH 6.75, disodium EDTA and amikacin sulfate added, room temperature, 0 h
[8] = Example 14: cefoperazone sodium/tazobactam sodium solution pH 6.75, disodium EDTA and amikacin sulfate added, room temperature, 1 h
[9] = Example 14: cefoperazone sodium/tazobactam sodium solution pH 6.75, disodium EDTA and amikacin sulfate added, room temperature, 2 h
[10] = Example 14: cefoperazone sodium/tazobactam sodium solution pH 6.75, disodium EDTA and amikacin sulfate added, room temperature, 4 h
[11] = Example 14: cefoperazone sodium/tazobactam sodium solution pH 6.75, disodium EDTA and amikacin sulfate added, room temperature, 6 h
[12] = Example 14: cefoperazone sodium/tazobactam sodium solution pH 6.75, disodium EDTA and amikacin sulfate added, room temperature, 8 h

Amount of component, percentage of amount at initial time (Example 9: amikacin sulfate/disodium EDTA/citrate pH 6.5 solution with fructose stored 7 days at minus 20° C., thawed, cefodizime sodium added, 0 h): 96.88%
Amount of component, percentage of amount at initial time (Example 9: amikacin sulfate/disodium EDTA/citrate pH 6.5 solution with fructose stored 7 days at minus 20° C., thawed, cefodizime sodium added, 1 h): 97.78%
Amount of component, percentage of amount at initial time (Example 9: amikacin sulfate/disodium EDTA/citrate pH 6.5 solution with fructose stored 7 days at minus 20° C., thawed, cefodizime sodium added, 2 h): 96.14%
Amount of component, percentage of amount at initial time (Example 9: amikacin sulfate/disodium EDTA/citrate pH 6.5 solution with fructose stored 7 days at minus 20° C., thawed, cefodizime sodium added, 4 h): 96.88%
Amount of component, percentage of amount at initial time (Example 9: amikacin sulfate/disodium EDTA/citrate pH 6.5 solution with fructose stored 7 days at minus 20° C., thawed, cefodizime sodium added, 6 h): 98.34%
Amount of component, percentage of amount at initial time (Example 9: amikacin sulfate/disodium EDTA/citrate pH 6.5 solution with fructose stored 7 days at minus 20° C., thawed, cefodizime sodium added, 8 h): 98.11%
Amount of component, percentage of amount at initial time [1]: 86.05%
Amount of component, percentage of amount at initial time [2]: 83.57%
Amount of component, percentage of amount at initial time [3]: 81.55%
Amount of component, percentage of amount at initial time [4]: 80.55%
Amount of component, percentage of amount at initial time [5]: 85.75%
Amount of component, percentage of amount at initial time [6]: 83.83%
SMILES: NCC[C@H](O)C(=O)N[C@@H]1C[C@H](N)[C@@H](O[C@H]2O[C@H](CN)[C@@H](O)[C@H](O)[C@H]2O)[C@H](O)[C@H]1O[C@H]1O[C@H](CO)[C@@H](O)[C@H](N)[C@H]1O [Amikacin, amikacin]

Amount of component, percentage of amount at initial time (Example 4 solution (cefoperazone sodium, sulbactam sodium, gentamicin, sodium citrate pH 6.75, no EDTA), room temperature, 0 h): 101.4%
Amount of component, percentage of amount at initial time (Example 4 solution (cefoperazone sodium, sulbactam sodium, gentamicin, sodium citrate pH 6.75, no EDTA), room temperature, 1 h): 98.66%
Amount of component, percentage of amount at initial time (Example 4 solution (cefoperazone sodium, sulbactam sodium, gentamicin, sodium citrate pH 6.75, no EDTA), room temperature, 2 h): 98.79%
Amount of component, percentage of amount at initial time (Example 4 solution (cefoperazone sodium, sulbactam sodium, gentamicin, sodium citrate pH 6.75, no EDTA), room temperature, 4 h): 101.5%
Amount of component, percentage of amount at initial time (Example 4 solution (cefoperazone sodium, sulbactam sodium, gentamicin, sodium citrate pH 6.75, no EDTA), room temperature, 6 h): 107.4%
Amount of component, percentage of amount at initial time (Example 5 solution (cefoperazone sodium, sulbactam sodium, gentamicin, disodium EDTA, sodium citrate pH 6.75), room temperature, 0 h): 101.4%
Amount of component, percentage of amount at initial time (Example 5 solution (cefoperazone sodium, sulbactam sodium, gentamicin, disodium EDTA, sodium citrate pH 6.75), room temperature, 1 h): 98.66%
Amount of component, percentage of amount at initial time (Example 5 solution (cefoperazone sodium, sulbactam sodium, gentamicin, disodium EDTA, sodium citrate pH 6.75), room temperature, 2 h): 98.79%
Amount of component, percentage of amount at initial time (Example 5 solution (cefoperazone sodium, sulbactam sodium, gentamicin, disodium EDTA, sodium citrate pH 6.75), room temperature, 4 h): 101.5%
Amount of component, percentage of amount at initial time (Example 5 solution (cefoperazone sodium, sulbactam sodium, gentamicin, disodium EDTA, sodium citrate pH 6.75), room temperature, 6 h): 107.4%
Amount of component, percentage of amount at initial time (Example 6 solution (cefoperazone sodium, sulbactam sodium, etimicin sulfate, disodium EDTA, sodium citrate pH 6.5), room temperature, 0 h): 110.4%
Amount of component, percentage of amount at initial time (Example 6 solution (cefoperazone sodium, sulbactam sodium, etimicin sulfate, disodium EDTA, sodium citrate pH 6.5), room temperature, 1 h): 99.48%
Amount of component, percentage of amount at initial time (Example 6 solution (cefoperazone sodium, sulbactam sodium, etimicin sulfate, disodium EDTA, sodium citrate pH 6.5), room temperature, 2 h): 101.3%
Amount of component, percentage of amount at initial time (Example 6 solution (cefoperazone sodium, sulbactam sodium, etimicin sulfate, disodium EDTA, sodium citrate pH 6.5), room temperature, 4 h): 98.66%
Amount of component, percentage of amount at initial time (Example 6 solution (cefoperazone sodium, sulbactam sodium, etimicin sulfate, disodium EDTA, sodium citrate pH 6.5), room temperature, 6 h): 98.02%
Amount of component, percentage of amount at initial time (Example 6 solution (cefoperazone sodium, sulbactam sodium, etimicin sulfate, disodium EDTA, sodium citrate pH 6.5), room temperature, 8 h): 99.30%
Amount of component, percentage of amount at initial time [7]: 100.2%
Amount of component, percentage of amount at initial time [8]: 99.0%
Amount of component, percentage of amount at initial time [9]: 99.0%
Amount of component, percentage of amount at initial time [10]: 96.2%
Amount of component, percentage of amount at initial time [11]: 94.5%
Amount of component, percentage of amount at initial time [12]: 95.3%
Amount of component, percentage of amount at initial time (Example 14: cefoperazone sodium/tazobactam sodium solution pH 6.75, etimicin sulfate added, 0 h): 100.2%
Amount of component, percentage of amount at initial time (Example 14: cefoperazone sodium/tazobactam sodium solution pH 6.75, etimicin sulfate added, 1 h): 99.0%
Amount of component, percentage of amount at initial time (Example 14: cefoperazone sodium/tazobactam sodium solution pH 6.75, etimicin sulfate added, 2 h): 99.0%
Amount of component, percentage of amount at initial time (Example 14: cefoperazone sodium/tazobactam sodium solution pH 6.75, etimicin sulfate added, 4 h): 96.2%
Amount of component, percentage of amount at initial time (Example 14: cefoperazone sodium/tazobactam sodium solution pH 6.75, etimicin sulfate added, 6 h): 94.5%
Amount of component, percentage of amount at initial time (Example 14: cefoperazone sodium/tazobactam sodium solution pH 6.75, etimicin sulfate added, 8 h): 95.3%
SMILES: CCN1CCN(C(=O)N[C@@H](C(=O)N[C@@H]2C(=O)N3C(C(=O)O)=C(CSc4nnnn4C)CS[C@H]23)c2ccc(O)cc2)C(=O)C1=O [Cefoperazone sodium, cefoperazone sodium]

Amount of component, percentage of amount at initial time (Example 8 solution (ceftriaxone sodium, tazobactam sodium, gentamicin sulfate, sodium citrate pH 6.75), room temperature, 0 h): 102.2%
Amount of component, percentage of amount at initial time (Example 8 solution (ceftriaxone sodium, tazobactam sodium, gentamicin sulfate, sodium citrate pH 6.75), room temperature, 1 h): 97.53%
Amount of component, percentage of amount at initial time (Example 8 solution (ceftriaxone sodium, tazobactam sodium, gentamicin sulfate, sodium citrate pH 6.75), room temperature, 2 h): 94.16%
Amount of component, percentage of amount at initial time (Example 8 solution (ceftriaxone sodium, tazobactam sodium, gentamicin sulfate, sodium citrate pH 6.75), room temperature, 4 h): 94.58%
Amount of component, percentage of amount at initial time (Example 8 solution (ceftriaxone sodium, tazobactam sodium, gentamicin sulfate, sodium citrate pH 6.75), room temperature, 6 h): 95.45%
Amount of component, percentage of amount at initial time (Example 8 solution (ceftriaxone sodium, tazobactam sodium, gentamicin sulfate, sodium citrate pH 6.75), room temperature, 8 h): 94.44%
Amount of component, percentage of amount at initial time [7]: 98.5%
Amount of component, percentage of amount at initial time [8]: 98.7%
Amount of component, percentage of amount at initial time [9]: 98.2%
Amount of component, percentage of amount at initial time [10]: 95.6%
Amount of component, percentage of amount at initial time [11]: 94.0%
Amount of component, percentage of amount at initial time [12]: 96.1%
SMILES: C[C@]1(Cn2ccnn2)[C@H](C(=O)O)N2C(=O)C[C@H]2S1(=O)=O [Tazobactam sodium, tazobactam sodium]

Amount of component, percentage of amount at initial time (Example 10: piperacillin sodium/sulbactam sodium solution cryopreserved 7 days, thawed, pH 6.0, etimicin sulfate added, no EDTA, 0 h): 101.8%
Amount of component, percentage of amount at initial time (Example 10: piperacillin sodium/sulbactam sodium solution cryopreserved 7 days, thawed, pH 6.0, etimicin sulfate added, no EDTA, 1 h): 101.3%
Amount of component, percentage of amount at initial time (Example 10: piperacillin sodium/sulbactam sodium solution cryopreserved 7 days, thawed, pH 6.0, etimicin sulfate added, no EDTA, 2 h): 101.8%
Amount of component, percentage of amount at initial time (Example 10: piperacillin sodium/sulbactam sodium solution cryopreserved 7 days, thawed, pH 6.0, etimicin sulfate added, no EDTA, 4 h): 101.2%
Amount of component, percentage of amount at initial time (Example 10: piperacillin sodium/sulbactam sodium solution cryopreserved 7 days, thawed, pH 6.0, etimicin sulfate added, no EDTA, 6 h): 98.3%
Amount of component, percentage of amount at initial time (Example 10: piperacillin sodium/sulbactam sodium solution cryopreserved 7 days, thawed, pH 6.0, etimicin sulfate added, no EDTA, 8 h): 95.1%
Amount of component, percentage of amount at initial time (Example 11: solution of Example 10 freeze-dried, stored 7 days at 0° C., redissolved, pH 6.0, etimicin sulfate and disodium EDTA added, 0 h): 101.8%
Amount of component, percentage of amount at initial time (Example 11: solution of Example 10 freeze-dried, stored 7 days at 0° C., redissolved, pH 6.0, etimicin sulfate and disodium EDTA added, 1 h): 101.3%
Amount of component, percentage of amount at initial time (Example 11: solution of Example 10 freeze-dried, stored 7 days at 0° C., redissolved, pH 6.0, etimicin sulfate and disodium EDTA added, 2 h): 101.8%
Amount of component, percentage of amount at initial time (Example 11: solution of Example 10 freeze-dried, stored 7 days at 0° C., redissolved, pH 6.0, etimicin sulfate and disodium EDTA added, 4 h): 101.2%
Amount of component, percentage of amount at initial time (Example 11: solution of Example 10 freeze-dried, stored 7 days at 0° C., redissolved, pH 6.0, etimicin sulfate and disodium EDTA added, 6 h): 98.3%
Amount of component, percentage of amount at initial time (Example 11: solution of Example 10 freeze-dried, stored 7 days at 0° C., redissolved, pH 6.0, etimicin sulfate and disodium EDTA added, 8 h): 95.1%
Amount of component, percentage of amount at initial time [1]: 101.8%
Amount of component, percentage of amount at initial time [2]: 101.3%
Amount of component, percentage of amount at initial time [3]: 101.8%
Amount of component, percentage of amount at initial time [4]: 101.2%
Amount of component, percentage of amount at initial time [5]: 98.3%
Amount of component, percentage of amount at initial time [6]: 95.1%
SMILES: CCN1CCN(C(=O)N[C@@H](C(=O)N[C@@H]2C(=O)N3[C@@H]2SC(C)(C)[C@@H]3C(=O)O)c2ccccc2)C(=O)C1=O [Piperacillin, piperacillin]
